The results in this text go back to ChEMBL document CHEMBL1140456, “Synthesis and screening of 3-substituted thioxanthen-9-one-10,10-dioxides” (Bioorg Med Chem Lett, 2007).

The target in the test is Breast cancer type 1 susceptibility protein (Homo sapiens, UniProt P38398). The test is described as follows: Inhibition of BRCA1 assessed as BRCT-BACH1 interaction.
Breast cancer type 1 susceptibility protein, sequence (P38398 whole entry): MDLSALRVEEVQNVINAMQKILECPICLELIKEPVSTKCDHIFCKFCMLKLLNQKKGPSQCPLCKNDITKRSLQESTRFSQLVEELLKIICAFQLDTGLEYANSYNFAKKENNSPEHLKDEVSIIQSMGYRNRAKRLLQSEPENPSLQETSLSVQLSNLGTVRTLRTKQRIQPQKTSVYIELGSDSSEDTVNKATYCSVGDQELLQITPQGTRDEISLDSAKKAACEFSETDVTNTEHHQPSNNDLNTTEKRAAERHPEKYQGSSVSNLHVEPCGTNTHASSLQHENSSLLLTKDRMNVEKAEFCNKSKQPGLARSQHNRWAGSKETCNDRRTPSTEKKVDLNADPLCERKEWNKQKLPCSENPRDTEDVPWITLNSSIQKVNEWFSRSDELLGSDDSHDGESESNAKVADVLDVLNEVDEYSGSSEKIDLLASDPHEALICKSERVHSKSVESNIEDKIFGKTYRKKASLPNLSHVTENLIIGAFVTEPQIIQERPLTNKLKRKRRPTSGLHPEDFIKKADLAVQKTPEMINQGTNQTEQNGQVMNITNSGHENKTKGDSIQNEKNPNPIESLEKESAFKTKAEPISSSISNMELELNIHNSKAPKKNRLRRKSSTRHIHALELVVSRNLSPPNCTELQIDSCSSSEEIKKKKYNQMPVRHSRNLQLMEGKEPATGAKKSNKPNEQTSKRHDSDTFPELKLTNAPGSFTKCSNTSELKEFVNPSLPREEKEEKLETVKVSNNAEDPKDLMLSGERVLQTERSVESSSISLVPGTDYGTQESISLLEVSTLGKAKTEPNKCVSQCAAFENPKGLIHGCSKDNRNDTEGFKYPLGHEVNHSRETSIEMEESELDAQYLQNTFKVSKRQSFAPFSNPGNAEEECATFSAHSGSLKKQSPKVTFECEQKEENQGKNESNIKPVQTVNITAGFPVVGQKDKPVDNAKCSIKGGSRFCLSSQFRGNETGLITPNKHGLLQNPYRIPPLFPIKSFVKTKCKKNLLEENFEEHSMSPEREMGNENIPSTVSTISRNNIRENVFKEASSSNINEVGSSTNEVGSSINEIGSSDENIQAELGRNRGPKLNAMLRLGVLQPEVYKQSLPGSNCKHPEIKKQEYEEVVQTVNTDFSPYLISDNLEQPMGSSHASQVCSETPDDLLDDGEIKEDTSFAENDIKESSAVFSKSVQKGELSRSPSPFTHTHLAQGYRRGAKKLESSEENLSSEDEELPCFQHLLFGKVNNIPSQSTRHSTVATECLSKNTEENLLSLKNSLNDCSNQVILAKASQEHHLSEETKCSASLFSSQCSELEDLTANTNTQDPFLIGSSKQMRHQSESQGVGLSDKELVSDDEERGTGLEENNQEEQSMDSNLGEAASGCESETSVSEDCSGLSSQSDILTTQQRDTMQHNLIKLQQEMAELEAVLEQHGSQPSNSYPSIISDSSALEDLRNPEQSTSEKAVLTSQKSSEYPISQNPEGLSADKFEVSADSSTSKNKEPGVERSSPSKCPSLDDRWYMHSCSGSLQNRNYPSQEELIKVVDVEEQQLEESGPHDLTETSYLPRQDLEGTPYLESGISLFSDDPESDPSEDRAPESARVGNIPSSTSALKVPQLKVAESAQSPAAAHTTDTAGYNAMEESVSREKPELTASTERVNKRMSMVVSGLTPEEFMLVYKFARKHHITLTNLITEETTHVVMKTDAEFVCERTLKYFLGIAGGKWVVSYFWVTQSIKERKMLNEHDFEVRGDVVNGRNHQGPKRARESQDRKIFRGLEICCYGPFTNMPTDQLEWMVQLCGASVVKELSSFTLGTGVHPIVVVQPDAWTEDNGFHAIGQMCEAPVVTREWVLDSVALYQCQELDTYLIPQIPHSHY
The Ki is a dissociation constant, usually derived from enzyme kinetics or from competition with a known ligand. For the molecule `CC1CCN(c2ccc3c(c2)S(=O)(=O)c2ccccc2C3=O)CC1`, the inhibitory constant (Ki) was determined as 39 µM.

`O=C1c2ccccc2S(=O)(=O)c2cc(N3CCC(Cc4ccccc4)CC3)ccc21`: the Ki worked out at 38 µM.

Take `NC(=O)C1CCN(c2ccc3c(c2)S(=O)(=O)c2ccccc2C3=O)CC1`: the Ki is 30 µM.
